# Experimental data as given in patent publication US20250171404A1, “PCNA INHIBITORS AND USES THEREOF” (CITY OF HOPE, priority 2022, published 2025).
# What was measured:
# [1] = system: DNA replication fork extension, SK-N-BE(2)-C or MDA-MB-231 cells; assay: DNA combing analysis (replication fork extension); format: cell-based; conditions: synchronized cells, 20 minutes
# Protocol: FIGS. 7A-7E. Transcription dependent effect on DNA replication and damage. FIG. 7A: Left: Schematic of the cell fractionation procedure. Right: MDA-MB-468 cells were treated by increasing concentrations of AOH1996 (5, 50, or 500 nM) for 24 h. Cells treated with DMSO were used as control. Whole cell extract (WCE) and protein fractions associated with actively transcribed chromatin (CB:RNA+) or with low or non-transcribed chromatin (CB:RNA−) were analyzed by Western blot using antibodies against PCNA, CAF-1, and MCM7. FIG. 7B: Synchronized cancer cells were sequentially incubated in the presence of CldU (light grey) and IdU (dark grey) before and after AOH1996 treatment, respectively. […] Middle and Right: Lengths of CldU (light grey) and IdU (dark grey) incorporated DNA segments measured for more than 30 independent DNA strands from the indicated cancer cell type were averaged and graphed ±S.D. FIG. 7C: Whole cell lysates were extracted from SK-N-AS cells homozygous of the wildtype RPB1 allele or the APIM-mutant allele. Histone H2A.X and γH2A.X was analyzed by Western blot after treatment with or without AOH1996 overnight. FIG. 7D: Histone H2A.X and γH2A.X in whole cell lysates from SK-N-AS cells were analyzed by Western blot after treatment with 500 nM AOH1996 and/or 50 μM DRB overnight. […]
# [2] = system: SK-N-BE(2)c xenograft tumors; assay: Xenograft tumor model, neuroblastoma; format: in vivo, mice
# Protocol: FIGS. 4A-4H. Pharmacokinetics and anti-tumor growth activity of AOH1996 in vivo. FIG. 4A: After oral administration, the plasma concentrations of AOH1996 from three male and three female ES1^e/SCID mice at the indicated time points were averaged and graphed ±S.D. The inset contains PK parameters determined by a standard noncompartmental method. FIG. 4B: A similar PK study of AOH1996 was performed in dogs. FIGS. 4C-4E: Mice bearing the xenograft tumors of neuroblastoma (FIG. 4C: SK-N-BE(2)c), breast cancer (FIG. 4D: MDA-MB-468), and small-cell lung cancer (FIG. 4E: H82) were given vehicle only (black) or 40 mg/kg of AOH1996 (grey) twice daily immediately after the first measurement. Tumor sizes were measured by a dial caliper each week. Tumor volumes (0.4×L×W^2) were averaged and graphed ±S.E. (*, P<0.01). FIG. 4F: Animal body weight was monitored throughout the studies as an indicator of toxicity. Shown is a typical study results from the study of the SK-N-BE(2)c tumor model described in (FIG. 4C). FIG. 4G: The levels of phosphor-Chk1 (pChk1) and γH2A.X in SK-N-BE(2)c derived tumor samples were analyzed by IHC. Shown are representative images taken from tumors treated by vehicle only or by 40 mg/kg AOH1996. FIG. 4H: ES1^e/SCID mice bearing SK-N-AS derived xenograft tumors were treated with either 80 mg/kg of AOH1996 (black, n=7) for 8 d beginning 8 d after tumor implantation, 15 mg/kg of CPT-11 (n=8) for 3 d beginning 12 d after tumor implantation, or both agents (combination, n=8) under the same dosages and schedules as they were dosed alone. […] The p values determined by the Log-rank (Mantel-Cox) test between combination treatment and each of the control groups are p=0.0003 (Combination vs. NoRx), p=0.005 (Combination vs. AOH1996 alone), and p=0.024 (Combination vs. CPT-11 alone).
# In vivo tumor model. […] Tumor size and animal weight were measured weekly. At the end of the experiment, tumors were isolated from sacrificed mice and analyzed by immunohistochemistry staining with antibodies specific for phosphor-Chk1 and γH2A.X.
smiles,measurement,setting,value
"COc1cccc(Oc2ccccc2NC(=O)CNC(=O)c2cccc3ccccc23)c1 [AOH1996, N-(2-((2-(3-methoxyphenoxy)phenyl)amino)-2-oxoethyl)-1-naphthamide]",length of IdU-incorporated DNA strands,[1],IdU-incorporated DNA strands became significantly shorter in cells treated by AOH1996 than untreated control cells
same,pharmacodynamics markers in tumors (immunohistochemistry),[2]; 40 mg/kg AOH1996 vs vehicle,Focal staining of γH2A.X and phospho-Chk1 were observed
same,tumor burden,"[2]; 40 mg/kg twice daily, oral, vs vehicle",significantly reduced tumor burden
same,"death, body weight","[2]; xenograft studies, 40 mg/kg twice daily",did not cause any death or significant weight loss
